Target: IRAK4 (Homo sapiens (Human), UniProt Q9NWZ3)
Assay: Determination of IRAK4 kinase activity (IMAP fluorescence polarization, phosphorylation of fluorescent peptide substrate)
Type: biochemical
Settings: 0.5 nM GST tagged IRAK4, 100 nM peptide substrate RP7030, 100 μM ATP, 30 minutes at 25° C.
Method in brief: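 GST-tagged IRAK4 (0.5 nM) phosphorylated 100 nM fluorescent peptide substrate with 100 µM ATP in Tris-HCl pH 7.2, 1 mM MgCl2, 1 mM DTT, 0.01% Tween 20 for 30 min at 25 °C. Phosphorylation read by IMAP nanoparticle binding as fluorescence polarization increase.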

Chain of IRAK4 (Q9NWZ3 whole entry): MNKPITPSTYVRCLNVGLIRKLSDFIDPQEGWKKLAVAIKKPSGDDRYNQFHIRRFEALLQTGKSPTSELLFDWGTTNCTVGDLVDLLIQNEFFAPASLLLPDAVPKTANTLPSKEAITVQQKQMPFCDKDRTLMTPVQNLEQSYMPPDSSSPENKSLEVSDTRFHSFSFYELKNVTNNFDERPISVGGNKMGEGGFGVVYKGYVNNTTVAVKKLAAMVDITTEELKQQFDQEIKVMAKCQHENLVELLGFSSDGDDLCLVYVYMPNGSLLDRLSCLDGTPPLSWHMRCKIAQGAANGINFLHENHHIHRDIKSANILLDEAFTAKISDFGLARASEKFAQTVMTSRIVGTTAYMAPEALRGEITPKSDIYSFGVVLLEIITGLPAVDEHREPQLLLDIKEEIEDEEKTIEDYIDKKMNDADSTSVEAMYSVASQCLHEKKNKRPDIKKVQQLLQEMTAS

Cc1cnccc1Nc1ncc(-c2nc3ccccc3s2)c(N[C@@H]2C[C@H](CO)[C@@H](O)[C@H]2O)n1 [Example 8, (1R,2S,3R,5R)-3-((5-(benzo[d]thiazol-2-yl)-2-((3-methylpyridin-4-yl)amino)pyrimidin-4-yl)amino)-5-(hydroxymethyl)cyclopentane-1,2-diol]
IC50: 516 nM

OC[C@H]1C[C@@H](Nc2nc(Nc3ccnc(F)c3)ncc2-c2nc3ccccc3s2)[C@H](O)[C@@H]1O [Example 6, (1R,2S,3R,5R)-3-((5-(benzo[d]thiazol-2-yl)-2-((2-fluoropyridin-4-yl)amino)pyrimidin-4-yl)amino)-5-(hydroxymethyl)cyclopentane-1,2-diol]
IC50: 2560 nM

CC(C)(O)[C@H]1C[C@@H](Nc2nc(NC3CCN(S(C)(=O)=O)CC3)ncc2-c2nc3ccccc3s2)[C@H](O)[C@@H]1O [Example 131, (1R,2S,3R,5S)-3-((5-(benzo[d]thiazol-2-yl)-2-((1-(methylsulfonyl)piperidin-4-yl)amino)pyrimidin-4-yl)amino)-5-(2-hydroxypropan-2-yl)cyclopentane-1,2-diol]
IC50: 382 nM

CC(C)Oc1cc(Nc2ncc(-c3ccc4ccccc4n3)c(N[C@@H]3C[C@H](CO)[C@@H](O)[C@H]3O)n2)ccn1 [Example 61, 6-(((1R,2S,3R,4R)-2,3-dihydroxy-4-(hydroxymethyl)cyclopentyl)amino)-2-((2-isopropoxypyridin-4-yl)amino)-5-(quinolin-2-yl)pyrimidine]
IC50: 27 nM

Nc1ncc(-c2nc(-c3ccccc3)cs2)c(N[C@@H]2C[C@H](CO)[C@@H](O)[C@H]2O)n1 [Example 11, (1R,2S,3R,5R)-3-((2-amino-5-(4-phenylthiazol-2-yl)pyrimidin-4-yl)amino)-5-(hydroxymethyl)cyclopentane-1,2-diol]
IC50: 409 nM

COc1cc(Nc2ncc(-c3ccc4ccccc4n3)c(N[C@@H]3C[C@H](CO)[C@@H](O)[C@H]3O)n2)ccn1 [Example 58, 6-(((1R,2S,3R,4R)-2,3-dihydroxy-4-(hydroxymethyl)cyclopentyl)amino)-2-((2-methoxypyridin-4-yl)amino)-5-(quinolin-2-yl)pyrimidine]
IC50: 8 nM

Cc1nc(N2CCC(C)CC2)nc(N[C@@H]2C[C@H](CO)[C@@H](O)[C@H]2O)c1-c1nc2ccccc2s1 [Example 98, (1R,2S,3R,5R)-3-((5-(benzo[d]thiazol-2-yl)-6-methyl-2-(4-methylpiperidin-1-yl)pyrimidin-4-yl)amino)-5-(hydroxymethyl)cyclopentane-1,2-diol]
IC50: 948 nM

CC(C)(O)C1C[C@@H](Nc2nc(Nc3cccc(C#N)c3)ncc2-c2nc3ccccc3s2)[C@H](O)[C@@H]1O (stereo in doubt) [Example 115, 5-(benzo[d]thiazol-2-yl)-2-((3-cyanophenyl)amino)-6-(((1R,2S,3R,4R)-2,3-dihydroxy-4-(2-hydroxypropan-2-yl)cyclopentyl)amino)pyrimidine]
IC50: 36 nM

COC[C@H]1C[C@@H](Nc2nc(Nc3ccnc(OC)c3)ncc2-c2nc3ccccc3s2)[C@H](O)[C@@H]1O [Example 143, (1R,2S,3R,5R)-3-((5-(benzo[d]thiazol-2-yl)-2-((2-methoxypyridin-4-yl)amino)pyrimidin-4-yl)amino)-5-(methoxymethyl)cyclopentane-1,2-diol]
IC50: 95 nM

OC[C@H]1C[C@@H](Nc2nc(Nc3cccc(F)c3)ncc2-c2nc3ccccc3s2)[C@H](O)[C@@H]1O [Example 13, (1R,2S,3R,5R)-3-((5-(benzo[d]thiazol-2-yl)-2-((3-fluorophenyl)amino)pyrimidin-4-yl)amino)-5-(hydroxymethyl)cyclopentane-1,2-diol]
IC50: 62 nM

OC[C@H]1C[C@@H](Nc2nc(Nc3ccc(OC(F)(F)F)cc3)ncc2-c2nc3ccccc3s2)[C@H](O)[C@@H]1O [Example 42, (1R,2S,3R,5R)-3-((5-(benzo[d]thiazol-2-yl)-2-((4-(trifluoromethoxy)phenyl)amino)pyrimidin-4-yl)amino)-5-(hydroxymethyl)cyclopentane-1,2-diol]
IC50: 552 nM

CC(C)(O)[C@H]1C[C@@H](Nc2nc(NC3CCC3)ncc2-c2nc3ccccc3s2)[C@H](O)[C@@H]1O [Example 128, (1R,2S,3R,5S)-3-((5-(benzo[d]thiazol-2-yl)-2-(cyclobutylamino)pyrimidin-4-yl)amino)-5-(2-hydroxypropan-2-yl)cyclopentane-1,2-diol]
IC50: 50 nM

Cc1cc(Nc2ncc(-c3nc4ccncc4s3)c(N[C@@H]3C[C@H](CO)[C@@H](O)[C@H]3O)n2)ccn1 [Example 77, 6-(((1R,2S,3R,4R)-2,3-dihydroxy-4-(hydroxymethyl)cyclopentyl)amino)-2-((2-methylpyridin-4-yl)amino)-5-(thiazolo[5,4-c]pyridin-2-yl)pyrimidine]
IC50: 8 nM

COCCCNc1ncc(-c2nc3ccccc3s2)c(N[C@@H]2C[C@H](CO)[C@@H](O)[C@H]2O)n1 [Example 16, (1R,2S,3R,5R)-3-((5-(benzo[d]thiazol-2-yl)-2-((3-methoxypropyl)amino)pyrimidin-4-yl)amino)-5-(hydroxymethyl)cyclopentane-1,2-diol]
IC50: 228 nM

COc1cccc(Nc2nc(C)c(-c3nc4ccccc4s3)c(N[C@@H]3C[C@H](CO)[C@@H](O)[C@H]3O)n2)c1 [Example 94, (1R,2S,3R,5R)-3-((5-(benzo[d]thiazol-2-yl)-2-((3-methoxyphenyl)amino)-6-methylpyrimidin-4-yl)amino)-5-(hydroxymethyl)cyclopentane-1,2-diol]
IC50: 870 nM

Nc1ncc(-c2nc3ccccc3s2)c(N[C@@H]2C[C@H](CO)[C@@H](O)[C@@H]2F)n1 [Example 145, (1R,2R,3R,5R)-3-((2-amino-5-(benzo[d]thiazol-2-yl)pyrimidin-4-yl)amino)-2-fluoro-5-(hydroxymethyl)cyclopentanol]
IC50: 1330 nM

OC[C@H]1C[C@@H](Nc2nc(Nc3cccc(O)c3)ncc2-c2nc3ccccc3s2)[C@H](O)[C@@H]1O [Example 3, (1R,2S,3R,5R)-3-((5-(benzo[d]thiazol-2-yl)-2-((3-hydroxyphenyl)amino)pyrimidin-4-yl)amino)-5-(hydroxymethyl)cyclopentane-1,2-diol]
IC50: 12 nM

OC[C@H]1C[C@@H](Nc2nc(NC3CCCC3)ncc2-c2nc3ccccc3s2)[C@H](O)[C@@H]1O [Example 33, (1R,2S,3R,5R)-3-((5-(benzo[d]thiazol-2-yl)-2-(cyclopentylamino)pyrimidin-4-yl)amino)-5-(hydroxymethyl)cyclopentane-1,2-diol]
IC50: 496 nM

CO[C@@H]1[C@H](O)[C@@H](C(C)(C)O)C[C@H]1Nc1nc(Nc2cc(C)nc(C)c2)ncc1-c1nc2ccccc2s1 [Example 149, (1R,2S,3R,5S)-3-((5-(benzo[d]thiazol-2-yl)-2-((2,6-dimethylpyridin-4-yl)amino)pyrimidin-4-yl)amino)-5-(2-hydroxypropan-2-yl)-2-methoxycyclopentanol]
IC50: 2.2 nM

Cc1cc(Nc2ncc(-c3nc4ccccc4s3)c(N[C@H]3C[C@@H](CO)[C@H](O)[C@@H]3O)n2)cc(C)n1 [Example 108, 5-(benzo[d]thiazol-2-yl)-6-(((1S,2R,3 S,4S)-2,3-dihydroxy-4-(hydroxymethyl)cyclopentyl)amino)-2-((2,6-dimethylpyridin-4-yl)amino)pyrimidine]
IC50: 384 nM
